Experiments:
[1] = target: T1, PIP4K2A (full length protein, SignalChem) (Homo sapiens, UniProt P48426); assay: Kinase Assay PIP4K2 A (Sprint); ADP-Glo biochemical assay; conditions: Table 2; compounds listed under IC50 range headings
T1 construct: 4 nM PIP4K2A (full length protein, SignalChem); purchased SignalChem
T1 sequence (P48426 1-406): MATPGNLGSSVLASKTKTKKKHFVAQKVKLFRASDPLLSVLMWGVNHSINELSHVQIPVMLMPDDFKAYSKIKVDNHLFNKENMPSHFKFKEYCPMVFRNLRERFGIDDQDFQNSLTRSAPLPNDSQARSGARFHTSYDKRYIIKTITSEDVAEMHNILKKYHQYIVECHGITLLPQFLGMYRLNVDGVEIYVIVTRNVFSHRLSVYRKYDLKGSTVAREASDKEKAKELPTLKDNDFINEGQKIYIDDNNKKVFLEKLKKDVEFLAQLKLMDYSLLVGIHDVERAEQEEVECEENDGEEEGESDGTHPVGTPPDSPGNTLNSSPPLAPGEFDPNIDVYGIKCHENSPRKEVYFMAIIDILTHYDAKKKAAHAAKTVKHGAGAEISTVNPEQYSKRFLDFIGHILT
Method: Dilution series of the compounds were prepared in DMSO at 100 times the final assay concentration (n1=n0/3 in 10 points). The compounds were further diluted to three times the assay concentration in assay buffer (20 mM MOPS pH 7.2, 25 mM magnesium chloride, 0.005% Tween 20). 6 μL of the diluted compounds were added to a 384 well assay plate followed by 9 μL of a mix consisting of 4 nM PIP4K2A (full length protein, SignalChem) and 100 μM PI(5)P diC8 (Tebu-Bio). Enzyme and compounds were pre-incubated at room temperature for 15 min.
Then 3 μL of a solution containing 60 μM ATP (Promega) in assay buffer was added to the wells containing compound and enzyme and mixing was performed by pipetting several times. The reaction was incubated at room temperature for 1 h. Then 18 μL of ADP-Glo™ Reagent (Promega) was added to stop the kinase reaction and deplete the unconsumed ATP, mixing was performed by pipetting several times. The plate was incubated at room temperature for 40 min before addition of 36 μL of Kinase Detection Reagent (Promega) to convert ADP to ATP and introduce luciferase and luciferin to detect ATP. The reaction was incubated at room temperature for 40 min before the luminescence was measured in a in a Victor 3V 1420 multilabel counter (Perkin Elmer).
Percent inhibition of the compounds as compared to dimethyl sulfoxide treated control samples was calculated. Compound concentration versus percent inhibition were fitted to generate IC50 values.

GST tagged PIP4KtypeIIB = target: T2, GST tagged PIP4KtypeIIB (Homo sapiens, UniProt P78356); assay: Trans-FI P kinase assay PIP4K2B (PIP4KtypeIIB inhibition assay); assay type: biochemical; conditions: Table 4; compounds listed under IC50 range headings; 100 uM GTP, 5 nM PIP4KIIB; read-out: Trans-FI P kinase assays: PIP4K2B IC50
T2 construct: made in house; host or cells: E. coli
T2 sequence (P78356 1-416): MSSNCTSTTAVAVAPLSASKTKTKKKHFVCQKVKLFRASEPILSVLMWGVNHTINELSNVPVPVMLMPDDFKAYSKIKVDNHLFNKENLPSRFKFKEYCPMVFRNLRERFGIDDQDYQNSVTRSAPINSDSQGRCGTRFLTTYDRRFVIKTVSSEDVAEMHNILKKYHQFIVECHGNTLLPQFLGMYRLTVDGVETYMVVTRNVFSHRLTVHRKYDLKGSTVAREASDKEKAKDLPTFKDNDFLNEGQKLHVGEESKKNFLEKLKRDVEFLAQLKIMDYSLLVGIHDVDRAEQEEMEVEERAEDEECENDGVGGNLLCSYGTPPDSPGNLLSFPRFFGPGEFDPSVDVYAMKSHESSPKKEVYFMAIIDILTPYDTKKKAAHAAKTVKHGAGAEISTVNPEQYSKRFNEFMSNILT
Source text: GST tagged PIP4KtypeIIA and B enzymes were overexpressed in E. Coli and purified to >80% homogeneity. Phosphatidyl inositol-5-phosphate (PI5P, Cat. #850152, Avanti Polar Lipids Inc.) was used as the lipid substrate and phosphatidyl ethanolamine (DOPE 18:1, Cat. #850725, Avanti Polar Lipids Inc.) was used as the carrier lipid for assays. Ultrapure ATP and GTP was purchased from Bellbrooke Labs. ADP Glo reagents were obtained from Promega. Transcreener FI reagent was obtained from Bellbrooke labs.
1. HEPES buffer mix: 200 mM HEPES pH 7.4, 50 mM MgCl2, 0.05% v/v triton×100
2. HNE buffer: 20 mM HEPES, pH 7.4, 100 mM NaCl, 0.5 mM EGTA
3. H:E buffer: 30 mM HEPES, pH 7.4, 1 mM EGTA
GST-tagged PIP4KtypeIIB (3.4 uL, 2.77 mg/mL) was diluted to 5 mL using HNE buffer to yield 5× enzyme stock (25 nM)
Lipid Preparation: In a 10 mL pyrex glass vial, lug of PI5P and lug of DOPE were suspended in 2.5 mL of HEPES buffer mix and 2.5 mL of H:E buffer. The contents were mixed and sonicated for 3 min to yield a translucent lipid stock.
Compound Preparation: Compounds were stored as 5 mM stocks in neat DMSO as room temperature in glass vials. 5 mM stocks were diluted to 2 mM and then serially diluted (3×) in neat DMSO in 96 well polypropylene plates. From the serially diluted stocks, 3 uL was delivered into 250 uL of 25% DMSO (in water) to generate 5× compound stocks. Typically, the highest compound conc. was 24 uM.
The assay volume was kept at 25 uL. To each well of the reaction plate, 10 uL of lipid stock (1:1 ratio PI5P:DOPE) was delivered. This was followed by the addition of 5 uL of compound in 25% DMSO. Then, to each well, 5 uL of 25 nM (5×) typeIIB enzyme was delivered. The contents were mixed well and incubated for 1 h at 27 C. After 1 h, reaction was initiated by adding 5 uL of 500 uM GTP and the contents were mixed well with a multi-channel pipetteman. The final concentration of the reagents are as follows: 50 mM HEPES, pH 7.3, 10 mM MgCl2, 20 mM NaCl, 0.01% v/v triton-X100, 5% DMSO, 100 uM GTP, 80 uM (2 ug) PI5P, 2 ug DOPE, and 5 nM PIP4KIIB Typically, the highest conc. of compounds was 4.8 uM and the lowest conc. was 0.
After 2 h, the reaction was quenched by adding 25 uL of transcreener FI reagent. The contents were incubated at RT for 1 h and the Fluorescence (Ex: 584 Em: 623) was read using Molecular Devices Paradigm plate reader. […] The blanks were averaged and subtracted from all other wells. Using a calibration curve, RFU was converted to uM GDP (product). IC50 was calculated by plotting the residual activity (expressed as % No inhibitor control) vs. log [Inh. conc.] Table 2 represents PI5P4K activity of compounds (Example No.) of the invention arranged in accordance with the inhibition of PIP4K2 A kinase assay.

SMILES | IC50 [1] [nM] | IC50 (GST tagged PIP4KtypeIIB) [nM]
O=C1CCCN1c1ccc(-c2cncc(-c3cc(C4CC4)nc4nncn34)c2)cc1 [Example 333, 1-(4-(5-(7-cyclopropyl-[1,2,4]triazolo[4,3-a]pyrimidin-5-yl)pyridin-3-yl)phenyl)pyrrolidin-2-one] | 100 to 1000 | 100 to 1000
CN1CCn2c(cc3c(-c4cncc(-c5ccc(C(=O)N6CCCC6)cc5)c4)ccnc32)C1=O [Example 349, 7-methyl-4-(5-(4-(pyrrolidine-1-carbonyl)phenyl)pyridin-3-yl)-8,9-dihydropyrido[3′,2′:4,5]pyrrolo[1,2-a]pyrazin-6(7H)-one] | 100 to 1000 | 100 to 1000
Cc1nc(CNC(=O)c2cc3c(-c4cncc(-c5ccc(N6CCCC6=O)cc5)c4)ccnc3[nH]2)oc1C [Example 390] | 5 to 100 | 10 to 100
CN1CCn2c(cc3c(-c4cncc(-c5ccc(-c6nncn6CC6CC6)cc5)c4)ccnc32)C1=O [Example 376, 4-(5-(4-(4-(cyclopropylmethyl)-4H-1,2,4-triazol-3-yl)phenyl)pyridin-3-yl)-7-methyl-8,9-dihydropyrido[3′,2′:4,5]pyrrolo[1,2-a]pyrazin-6(7H)-one] | 1000 to 2500 | 10 to 100
CN1CCn2c(cc3c(-c4cncc(-c5ccc(N6CC(C)(C)CCC6=O)cc5)c4)ccnc32)C1=O [Example 326, 4-(5-(4-(5,5-dimethyl-2-oxopiperidin-1-yl)phenyl)pyridin-3-yl)-7-methyl-8,9-dihydropyrido[3′,2′:4,5]pyrrolo[1,2-a]pyrazin-6(7H)-one] | 1000 to 2500 | 100 to 1000
O=C1CCCN1c1ccc(-c2cncc(-c3cnc4ncc(-c5cncnc5)n4c3)c2)cc1 [Example 341, 1-(4-(5-(3-(pyrimidin-5-yl)imidazo[1,2-a]pyrimidin-6-yl)pyridin-3-yl)phenyl)pyrrolidin-2-one] | 1000 to 2500 | 1000 to 2500
Nc1ccc(-c2cnc3ncc(-c4cncc(-c5ccc(N6CCCC6=O)cc5)c4)cn23)cn1 [Example 337, 1-(4-(5-(3-(6-aminopyridin-3-yl)imidazo[1,2-a]pyrimidin-6-yl)pyridin-3-yl)phenyl)pyrrolidin-2-one] | 5 to 100 | 100 to 1000
CN1CCn2c(cc3c(-c4cncc(-c5ccc(-c6nncn6C6CC(F)(F)C6)cc5)c4)ccnc32)C1=O [Example 394, 4-(5-(4-(4-(3,3-difluorocyclobutyl)-4H-1,2,4-triazol-3-yl)phenyl)pyridin-3-yl)-7-methyl-8,9-dihydropyrido[3′,2′:4,5]pyrrolo[1,2-a]pyrazin-6(7H)-one] | 2500 to 5000 | 100 to 1000
O=C1CCCN1c1ccc(-c2cncc(-c3ccnc4nncn34)c2)cc1 [Example 340, 1-(4-(5-([1,2,4]triazolo[4,3-a]pyrimidin-5-yl)pyridin-3-yl)phenyl)pyrrolidin-2-one] | < 5000 | > 5000
CN1CCn2c(cc3c(-c4cncc(-c5ccc(N6CCCS6(=O)=O)cc5)c4)ccnc32)C1=O [Example 386, 4-(5-(4-(1,1-dioxidoisothiazolidin-2-yl)phenyl)pyridin-3-yl)-7-methyl-8,9-dihydropyrido[3′,2′:4,5]pyrrolo[1,2-a]pyrazin-6(7H)-one] | 100 to 1000 | 100 to 1000
CN(C)C(=O)c1ccc(-c2cc(-c3cnc4c(c3)c(-c3cccnc3)cn4C)cnc2N)nc1 [Example 121, 2′-amino-N,N-dimethyl-5′-(1-methyl-3-(pyridin-3-yl)-1H-pyrrolo[2,3-b]pyridin-5-yl)-[2,3′-bipyridine]-5-carboxamide] | 100 to 1000 | 100 to 1000
O=C(Nc1ccncc1)c1cc2c(-c3cncc(-c4ccc(N5CCCC5=O)cc4)c3)ccnc2[nH]1 [Example 314, 4-(5-(4-(2-oxopyrrolidin-1-yl)phenyl)pyridin-3-yl)-N-(pyridin-4-yl)-1H-pyrrolo[2,3-b]pyridine-2-carboxamide] | 1000 to 2500 | 10 to 100
O=C(NCc1cccc2c1B(O)OC2)c1cc2c(-c3cncc(-c4ccc(N5CCCC5=O)cc4)c3)ccnc2[nH]1 [Example 379, N-((1-hydroxy-1,3-dihydrobenzo[c][1,2]oxaborol-7-yl)methyl)-4-(5-(4-(2-oxopyrrolidin-1-yl)phenyl)pyridin-3-yl)-1H-pyrrolo[2,3-b]pyridine-2-carboxamide] | 5 to 100 | 10 to 100
C[C@@H]1CCC(=O)N1c1ccc(-c2cncc(-c3ccnc4c3cc3n4CCN(C)C3=O)c2)cc1 [Example 306, (R)-7-methyl-4-(5-(4-(2-methyl-5-oxopyrrolidin-1-yl)phenyl)pyridin-3-yl)-8,9-dihydropyrido[3′,2′:4,5]pyrrolo[1,2-a]pyrazin-6(7H)-one] | 5 to 100 | 1 to 10
CC(=O)Nc1ncc(-c2cn(C)c3ncc(-c4cncc(-c5ccc(N6CCCC6=O)cc5)c4)cc23)cn1 [Example 350, N-(5-(1-methyl-5-(5-(4-(2-oxopyrrolidin-1-yl)phenyl)pyridin-3-yl)-1H-pyrrolo[2,3-b]pyridin-3-yl)pyrimidin-2-yl)acetamide] | 5 to 100 | 100 to 1000
O=C(COc1cccc2c1C(=O)N(C1CCC(=O)NC1=O)C2=O)NCCCCCCCCNC(=O)c1cc2c(-c3cncc(-c4ccc(N5CCCC5=O)cc4)c3)ccnc2[nH]1 (centres unmarked) [Example 395, N-(8-(2-((2-(2,6-dioxopiperidin-3-yl)-1,3-dioxoisoindolin-4-yl)oxy)acetamido)octyl)-4-(5-(4-(2-oxopyrrolidin-1-yl)phenyl)pyridin-3-yl)-1H-pyrrolo[2,3-b]pyridine-2-carboxamide] | 1000 to 2500 | 100 to 1000
